settings: human gut metagenome, 24 h, 2 µM
Also: call rule not given here.

Structure (SMILES) | Bacterial Biotransformation
CCOc1ccc2nc(S(N)(=O)=O)sc2c1 [ETHOXZOLAMIDE] | Compound NOT metabolized
CCc1cccc2c3c([nH]c12)C(CC)(CC(=O)O)OCC3 (stereo not given) [ETODOLAC] | Compound NOT metabolized

Continued, values first:

Bacterial Biotransformation | Structure (SMILES)
Compound NOT metabolized | CC(=O)OCC(CCn1cnc2cnc(N)nc21)COC(C)=O [FAMCICLOVIR]
Compound metabolized | CC(C)(C)NC(=O)[C@H]1CC[C@H]2[C@@H]3CC[C@H]4NC(=O)C=C[C@]4(C)[C@H]3CC[C@]12C [FINASTERIDE]
Compound NOT metabolized | CC1Cc2ccccc2N1NC(=O)c1ccc(Cl)c(S(N)(=O)=O)c1 (stereo not given) [INDAPAMIDE]

settings: human gut metagenome, 24 h, 2 µM; remark: another data set of the same source

Structure (SMILES) | Bacterial Biotransformation
CCOc1ccc2nc(S(N)(=O)=O)sc2c1 [ETHOXZOLAMIDE] | Compound NOT metabolized
CCc1cccc2c3c([nH]c12)C(CC)(CC(=O)O)OCC3 (stereo not given) [ETODOLAC] | Compound metabolized

The remaining lines, values ahead:

Bacterial Biotransformation | Structure (SMILES)
Compound metabolized | CC(=O)OCC(CCn1cnc2cnc(N)nc21)COC(C)=O [FAMCICLOVIR]
Compound metabolized | CC(C)(C)NC(=O)[C@H]1CC[C@H]2[C@@H]3CC[C@H]4NC(=O)C=C[C@]4(C)[C@H]3CC[C@]12C [FINASTERIDE]
Compound NOT metabolized | CC1Cc2ccccc2N1NC(=O)c1ccc(Cl)c(S(N)(=O)=O)c1 (stereo not given) [INDAPAMIDE]

settings: human gut metagenome, 24 h, 2 µM; remark: another data set of the same source

Structure (SMILES) | Bacterial Biotransformation
CCOc1ccc2nc(S(N)(=O)=O)sc2c1 [ETHOXZOLAMIDE] | Compound NOT metabolized
CCc1cccc2c3c([nH]c12)C(CC)(CC(=O)O)OCC3 (stereo not given) [ETODOLAC] | Compound metabolized

Now from value to molecule:

Bacterial Biotransformation | Structure (SMILES)
Compound metabolized | CC(=O)OCC(CCn1cnc2cnc(N)nc21)COC(C)=O [FAMCICLOVIR]
Compound metabolized | CC(C)(C)NC(=O)[C@H]1CC[C@H]2[C@@H]3CC[C@H]4NC(=O)C=C[C@]4(C)[C@H]3CC[C@]12C [FINASTERIDE]
Compound NOT metabolized | CC1Cc2ccccc2N1NC(=O)c1ccc(Cl)c(S(N)(=O)=O)c1 (stereo not given) [INDAPAMIDE]

test: (§1) The drug is tested on WLS-006 corresponding to human gut metagenome with ENA study accession number: PRJEB37062 and ENA sample accession number: ERS12561741 for biotransformation under anaerobic condition. The drug concentrations were measured over 9 timepoints collected between 0 and 24 hours of incubation by liquid-chromatography-coupled mass spectrometry (LC–MS); settings: 2 µM

Structure (SMILES) | Bacterial Biotransformation
CCOc1ccc2nc(S(N)(=O)=O)sc2c1 [ETHOXZOLAMIDE] | Compound NOT metabolized
CCc1cccc2c3c([nH]c12)C(CC)(CC(=O)O)OCC3 (stereo not given) [ETODOLAC] | Compound metabolized

Further lines, results first:

Bacterial Biotransformation | Structure (SMILES)
Compound metabolized | CC(=O)OCC(CCn1cnc2cnc(N)nc21)COC(C)=O [FAMCICLOVIR]
Compound metabolized | CC(C)(C)NC(=O)[C@H]1CC[C@H]2[C@@H]3CC[C@H]4NC(=O)C=C[C@]4(C)[C@H]3CC[C@]12C [FINASTERIDE]
Compound NOT metabolized | CC1Cc2ccccc2N1NC(=O)c1ccc(Cl)c(S(N)(=O)=O)c1 (stereo not given) [INDAPAMIDE]

test: as §1, with “WLS-370” for “WLS-006”, “ERS12561793” for “ERS12561741”; settings: 2 µM

Structure (SMILES) | Bacterial Biotransformation
CCOc1ccc2nc(S(N)(=O)=O)sc2c1 [ETHOXZOLAMIDE] | Compound NOT metabolized
CCc1cccc2c3c([nH]c12)C(CC)(CC(=O)O)OCC3 (stereo not given) [ETODOLAC] | Compound metabolized

Results, then the molecule that gave them:

Bacterial Biotransformation | Structure (SMILES)
Compound metabolized | CC(=O)OCC(CCn1cnc2cnc(N)nc21)COC(C)=O [FAMCICLOVIR]
Compound metabolized | CC(C)(C)NC(=O)[C@H]1CC[C@H]2[C@@H]3CC[C@H]4NC(=O)C=C[C@]4(C)[C@H]3CC[C@]12C [FINASTERIDE]
Compound NOT metabolized | CC1Cc2ccccc2N1NC(=O)c1ccc(Cl)c(S(N)(=O)=O)c1 (stereo not given) [INDAPAMIDE]

settings: human gut metagenome, 24 h, 2 µM; remark: another data set of the same source

Structure (SMILES) | Bacterial Biotransformation
CCOc1ccc2nc(S(N)(=O)=O)sc2c1 [ETHOXZOLAMIDE] | Compound NOT metabolized
CCc1cccc2c3c([nH]c12)C(CC)(CC(=O)O)OCC3 (stereo not given) [ETODOLAC] | Compound metabolized

Second part, the molecule after the results:

Bacterial Biotransformation | Structure (SMILES)
Compound metabolized | CC(=O)OCC(CCn1cnc2cnc(N)nc21)COC(C)=O [FAMCICLOVIR]
Compound metabolized | CC(C)(C)NC(=O)[C@H]1CC[C@H]2[C@@H]3CC[C@H]4NC(=O)C=C[C@]4(C)[C@H]3CC[C@]12C [FINASTERIDE]
Compound NOT metabolized | CC1Cc2ccccc2N1NC(=O)c1ccc(Cl)c(S(N)(=O)=O)c1 (stereo not given) [INDAPAMIDE]

test: as §1, with “Z-028” for “WLS-006”, “mouse” for “human”, “ERS12561827” for “ERS12561741”; settings: 2 µM

Structure (SMILES) | Bacterial Biotransformation
CCOc1ccc2nc(S(N)(=O)=O)sc2c1 [ETHOXZOLAMIDE] | Compound NOT metabolized
CCc1cccc2c3c([nH]c12)C(CC)(CC(=O)O)OCC3 (stereo not given) [ETODOLAC] | Compound NOT metabolized

Further lines, results first:

Bacterial Biotransformation | Structure (SMILES)
Compound metabolized | CC(=O)OCC(CCn1cnc2cnc(N)nc21)COC(C)=O [FAMCICLOVIR]
Compound metabolized | CC(C)(C)NC(=O)[C@H]1CC[C@H]2[C@@H]3CC[C@H]4NC(=O)C=C[C@]4(C)[C@H]3CC[C@]12C [FINASTERIDE]
Compound NOT metabolized | CC1Cc2ccccc2N1NC(=O)c1ccc(Cl)c(S(N)(=O)=O)c1 (stereo not given) [INDAPAMIDE]

settings: human gut metagenome, 24 h, 2 µM; remark: another data set of the same source

Structure (SMILES) | Bacterial Biotransformation
CCOc1ccc2nc(S(N)(=O)=O)sc2c1 [ETHOXZOLAMIDE] | Compound NOT metabolized
CCc1cccc2c3c([nH]c12)C(CC)(CC(=O)O)OCC3 (stereo not given) [ETODOLAC] | Compound metabolized

Now from value to molecule:

Bacterial Biotransformation | Structure (SMILES)
Compound metabolized | CC(=O)OCC(CCn1cnc2cnc(N)nc21)COC(C)=O [FAMCICLOVIR]
Compound metabolized | CC(C)(C)NC(=O)[C@H]1CC[C@H]2[C@@H]3CC[C@H]4NC(=O)C=C[C@]4(C)[C@H]3CC[C@]12C [FINASTERIDE]
Compound NOT metabolized | CC1Cc2ccccc2N1NC(=O)c1ccc(Cl)c(S(N)(=O)=O)c1 (stereo not given) [INDAPAMIDE]

settings: human gut metagenome, 24 h, 2 µM; remark: another data set of the same source

Structure (SMILES) | Bacterial Biotransformation
CCOc1ccc2nc(S(N)(=O)=O)sc2c1 [ETHOXZOLAMIDE] | Compound NOT metabolized
CCc1cccc2c3c([nH]c12)C(CC)(CC(=O)O)OCC3 (stereo not given) [ETODOLAC] | Compound metabolized

Now from value to molecule:

Bacterial Biotransformation | Structure (SMILES)
Compound metabolized | CC(=O)OCC(CCn1cnc2cnc(N)nc21)COC(C)=O [FAMCICLOVIR]
Compound metabolized | CC(C)(C)NC(=O)[C@H]1CC[C@H]2[C@@H]3CC[C@H]4NC(=O)C=C[C@]4(C)[C@H]3CC[C@]12C [FINASTERIDE]
Compound NOT metabolized | CC1Cc2ccccc2N1NC(=O)c1ccc(Cl)c(S(N)(=O)=O)c1 (stereo not given) [INDAPAMIDE]
